{
  "source": "patent US5541232A",
  "about": "“Treatment of multidrug resistant diseases” (Chemex Pharmaceuticals, Inc., priority 1994, dated 1996)",
  "key": {"[1]": {"system": "MCF7/0 human breast adenocarcinoma cells", "assay": "flow cytometry P-glycoprotein function assay of doxorubicin efflux, MCF7/0 (doxorubicin sensitive)", "assay_type": "cell-based", "method": "(§1) The following tests were preformed to determine the effect of NDGA on efflux of doxorubicin (hereinafter sometimes referred to as DOX) for doxorubicin sensitive MCF7/0 and doxorubicin resistant MCF7/ADR human breast adenocarcinoma cells in vitro.\n(§2) The cells were exposed to 50 μg/ml NDGA for 24 hrs prior to loading with DOX (doxorubicin) at 37° C. […] PBS. Flow analysis of cell efflux of DOX was collected over 30 minutes using the time parameter.\n(§3) Procedure for P-Glycoprotein (PGP) Function Assay of Doxorubicin Efflux is shown hereunder.\n(§4) 1. […] Store at room temperature.\n(§5) 2. Doxorubicin (GFW=580) Make a solution of doxorubicin to contain 10 μg/ml. Store frozen at 0° C.\n(§6) 4. NDGA (MW=302.36) Make a solution of NDGA to contain 50 μg/ml. Store frozen at 0° C.\n(§7) 5. MCF7/0 (Doxorubicin sensitive) and MCF7/ADR (Doxorubicin resistant), human breast adenocarcinoma cell lines.\n(§8) 1. Make up 2×10^6 cells per ml in PBS. Expose 1 ml of cells to 50 μg of NDGA for 24 hrs at 37° C. prior to loading with Doxorubicin.\n(§9) 2. Add 1 ml of 10 μg/ml doxorubicin, mix and divide into two aliquots.\n(§10) 4. Incubate both tubes at 37° C. for 30 minutes.\n(§11) 5. Centrifuge the tubes at 37° C. for 5 minutes on a fast spin to pellet cells. Resuspend in 1 ml of buffer.\n(§12) 6. Run immediately on the flow cytometer. Excitation 488 nm, emission 560-600 nm. Collect forward and 90° side scatter and PMT4 linear scale. Collect 10,000-50,000 events and calculate the mean channel fluorescence (MCF) for PMT4.\n(§13) 7. Run both samples as close together as possible, and avoid prolonged exposure to room temperature."}, "[2]": {"system": "MCF7/ADR human breast adenocarcinoma cells", "assay": "flow cytometry P-glycoprotein function assay of doxorubicin efflux, MCF7/ADR (doxorubicin resistant)", "assay_type": "cell-based", "method": "as §1, §2, §3, §4, §5, §6, §7, §8, §9, §10, §11, §12, §13"}, "[3]": {"system": "DLD-1 Colon cancer cells", "assay": "in vitro cytotoxicity anti tumor activity", "assay_type": "cell-based", "details": "Homo sapiens, DLD-1, 1 h; One Hour Pulse Treatment; read-out: IC50"}, "[4]": {"system": "WI-38 Lung Fibroblasts", "assay": "in vitro cytotoxicity, normal cells", "assay_type": "cell-based", "details": "Homo sapiens, WI-38, 1 h; One Hour Pulse Treatment; read-out: IC50"}, "[5]": {"system": "KB-3-1 human cervical carcinoma cells", "assay": "inhibition of colony formation, KB-3-1", "assay_type": "cell-based", "details": "KB 3-1, 240 h, read-out: IC50 (Masoprocol), 50% inhibition of colony formation, 10 days, 37° C., parenthesis: standard deviation", "excerpt": "(§14) To investigate whether masoprocol modulates multidrug resistance, a line of multidrug resistant (GRC-1) cells which were derived from parenteral drug sensitive human cervical carcinoma (KB-3-1) cells by transfection of the mdr1 genes were employed. Such transfection was by the method set forth in Choi, et al., Cell 53:519-529, 1989. These cell lines differ only with respect to the over-expression of P-glycoprotein. These tests were designed to examine whether masoprocol modulates tumor cell drug resistance by interfering with P-glycoprotein function. […] See, Regulation of initial vinblastine influx by P-glycoprotein, Shalinsky, et al., cited above.\nMasoprocol was provided by Chemex Pharmaceuticals, Inc. (Fort Lee, N.J.). Tritiated vinblastine ([^3 H]VBL) (10 Ci mmol^-1) was purchased from Moravek Biochemicals (Brea, Calif.), stored in the dark at -80° C. and protected from light during the experiments. […]\n(§15) First, cells which had been seeded at 200-300 cells/dish were incubated in media containing masoprocol or VBL. After an incubation period of 10 days at 37° C. the cells were fixed with methanol and stained with Giemsa, and the number of colonies per dish were counted and expressed as a percent of the number of colonies in control conditions. […] Parenthesis indicate standard deviations determined from replicate experiments."}, "[6]": {"system": "P-glycoprotein", "assay": "P-glycoprotein substrate", "assay_type": "cell-based, human", "details": "inferred from colony formation in GRC-1 vs KB-3-1", "excerpt": "as §14, §15"}, "[7]": {"system": "KB-3-1 human cervical carcinoma cells", "assay": "modulation of VBL toxicity (colony formation), KB-3-1", "assay_type": "cell-based", "details": "25 μM masoprocol, 10 days, 37° C.", "method": "Drug-sensitive KB-3-1 cells and the drug resistant subline (KB-GRC-1) were obtained from Dr. Igor Roninson (University of Illinois, College of Medicine, Chicago, Ill.). Cells were maintained in Dulbecco's modified Eagle's medium supplemented with 10% fetal bovine serum and 2 mM glutamine. The KB-GRC-1 cells were maintained in medium supplemented with 6 ng/ml colchicine.\nTo test the modulation of VBL toxicity by masoprocol, cells which had been seeded at 200-300 cells/dish were incubated in media containing various concentrations of VBL in the absence or presence of 25 μM masoprocol. After an incubation period of 10 days at 37° C. the cells were fixed and stained, and the number of colonies per dish were counted and expressed as a percent of the number of colonies formed in control conditions. 1."}, "[8]": {"system": "KB-3-1 human cervical carcinoma cells", "assay": "steady state accumulation of VBL, KB-3-1", "assay_type": "cell-based", "method": "At the desired time, the medium was aspirated and cells washed 5 times with ice cold PBS. Cells were digested overnight in 1N NaOH, at which time aliquots were used to determine protein content and radioactivity. The final concentration of VBL was 6 nM.\nCells were incubated for one hour with media containing either tritiated vinblastine (^3 H]VBL) alone or containing [^3 H]VBL with 50 μM masoprocol. Cells were then washed with ice cold PBS and the amount of VBL accumulated in cells was determined using a scintillation counter. In FIG. 1 each data point represents the mean of replicate experiments performed with duplicate cultures. Vertical bars are +/- S.D."}, "[9]": {"system": "GRC-1 multidrug resistant human cervical carcinoma cells", "assay": "initial influx of VBL, GRC-1", "assay_type": "cell-based", "details": "50 μM masoprocol added concurrently with VBL, 3 to 24 seconds; FIG. 4a", "method": "A further test was conducted to show the effect of masoprocol on the initial influx of VBL. Cells were exposed to media containing [^3 H]VBL with and without 50 μM masoprocol. After incubation times ranging from 3 seconds to 24 seconds, the media was removed. The amount of VBL taken up by the cells was determined as described in A. The data was summarized from four replicate experiments. FIG. 4apresents the results for the GRC-1 cell line, and FIG. 4b for the KB-3-1 cell line."}, "[10]": {"system": "human breast adenocarcinoma", "details": "cited from earlier work"}},
  "note": "“Also recorded” adds a separate entry of the source.",
  "data": [
    {"smiles": "C[C@H](Cc1ccc(O)c(O)c1)[C@@H](C)Cc1ccc(O)c(O)c1", "note": "[Masoprocol, meso-1,4-bis (3,4-dihydroxyphenyl)-2,3-dimethylbutane]", "values": [
      {"measurement": "activation at 50 µg/mL", "setting": "[1]; Homo sapiens, MCF7, 24 h, read-out: % DOX increase w/NDGA", "value": 44.5, "unit": "%"},
      {"measurement": "DOX loading / retention / accumulation (in words)", "setting": "[1]; sensitive cells", "value": "loading more DOX after NDGA treatment than controls or verapamil treated cells"},
      {"measurement": "activation at 50 µg/mL", "setting": "[2]; Homo sapiens, NCI/ADR-RES, 24 h, read-out: % DOX increase w/NDGA", "value": 25.6, "unit": "%"},
      {"measurement": "DOX loading / retention / efflux (in words)", "setting": "[2]; resistant cells, listed as NDGA", "value": "augmentation of DOX retention; also recorded: will inhibit the efflux of DOX"},
      {"measurement": "IC50", "setting": "[3]", "value": 124, "unit": "µM"},
      {"measurement": "IC50", "setting": "[4]", "value": 159, "unit": "µM"},
      {"measurement": "IC50", "setting": "[5]", "value": 43.6, "unit": "µM"},
      {"measurement": "P-glycoprotein substrate", "setting": "[6]", "value": "not a substrate for P-glycoprotein"},
      {"measurement": "effect on VBL cytotoxicity / colony formation", "setting": "[7]", "value": "increase in the cytotoxicity of VBL; also recorded: increases the cytotoxic effect of VBL"},
      {"measurement": "steady state accumulation of VBL, compared with verapamil", "setting": "[8]; 50 μM masoprocol", "value": "comparable to that of 10 μM verapamil"},
      {"measurement": "steady state accumulation of VBL", "setting": "[8]; one hour, masoprocol with [3H]VBL", "value": "dose-dependent increase in the steady state accumulation of VBL; also recorded: increases the steady state accumulation of VBL"},
      {"measurement": "initial VBL uptake (influx)", "setting": "[9]", "value": "substantial increase in initial VBL uptake; also recorded: effective modulator of initial VBL influx; also recorded: promotes the initial uptake of VBL"},
      {"measurement": "effectiveness against human breast adenocarcinoma", "setting": "[10]", "value": "particularly effective"}
    ]}
  ]
}
